# Measurements as given in paper PMC2631656 (Journal of medicinal chemistry, 2008).
# Read-outs that look alike come from different tables or passages of the source.
# Assays:
# [1] = test system: PC-3 PIP (PSMA^+) and PC-3 flu (PSMA^-) xenografts
# [2] = test system: PSMA^+ PC-3 PIP and PC-3 flu xenografts; assay: PET-CT imaging, PC-3 PIP and PC-3 flu xenografts; format: in vivo; details: dynamic scan 94-120 min p.i., i.v.
compound,measurement,setting,value
"O=C(O)CCC(NC(=O)NC(CCCCNC(=O)c1ccc([18F])cc1)C(=O)O)C(=O)O (stereo not drawn) [Compound [^18F]6, 2-[3-[1-carboxy-5-(4-[^18F]fluoro-benzoylamino)-pentyl]-ureido]-pentanedioic acid]",uptake in PC-3 PIP tumor,[1]; 30 min p.i.,8.6 ± 3.1 % ID/g
same,uptake in PC-3 flu tumor,[1]; 30 min p.i.,0.8 ± 0.3 % ID/g
same,uptake in bladder,[1]; 30 min p.i.,6.8 ± 3.5 % ID/g
same,uptake in blood,[1]; 30 min p.i.,2.5 ± 1.7 % ID/g
same,uptake in heart,[1]; 30 min p.i.,0.8 ± 0.1 % ID/g
same,uptake in kidney,[1]; 30 min p.i.,72 ± 3 % ID/g
same,uptake in large int.,[1]; 30 min p.i.,1.2 ± 0.8 % ID/g
same,uptake in liver,[1]; 30 min p.i.,8.7 ± 1.8 % ID/g
same,uptake in lung,[1]; 30 min p.i.,1.7 ± 0.3 % ID/g
same,uptake in muscle,[1]; 30 min p.i.,2.4 ± 3.1 % ID/g
same,uptake in pancreas,[1]; 30 min p.i.,0.8± 0.1 % ID/g
same,uptake in small int.,[1]; 30 min p.i.,1.7 ± 0.7 % ID/g
same,uptake in spleen,[1]; 30 min p.i.,12.7 ± 0.4 % ID/g
same,uptake in stomach,[1]; 30 min p.i.,0.8 ± 0.1 % ID/g
same,uptake in PC-3 PIP tumor,[1]; 60 min p.i.,6.4 ± 0.9 % ID/g
same,uptake in bladder,[1]; 60 min p.i.,17 ± 21 % ID/g
same,uptake in heart,[1]; 60 min p.i.,0.2 ± 0.02 % ID/g
same,uptake in kidney,[1]; 60 min p.i.,48 ± 5 % ID/g
same,uptake in large int.,[1]; 60 min p.i.,0.5 ± 0.1 % ID/g
same,uptake in liver,[1]; 60 min p.i.,5.8 ± 0.6 % ID/g
same,uptake in lung,[1]; 60 min p.i.,0.5 ± 0.1 % ID/g
same,uptake in muscle,[1]; 60 min p.i.,0.5 ± 0.7 % ID/g
same,uptake in small int.,[1]; 60 min p.i.,0.6 ± 0.2 % ID/g
same,uptake in spleen,[1]; 60 min p.i.,7.2 ± 1.6 % ID/g
same,uptake in stomach,[1]; 60 min p.i.,0.25 ± 0.1 % ID/g
same,uptake in PC-3 PIP tumor,[1]; 2 h p.i.,3.7 ± 1.2 % ID/g
same,uptake in PC-3 flu tumor,[1]; 2 h p.i.,0.25 ± 0.1 % ID/g
same,uptake in heart,[1]; 2 h p.i.,0.15 ± 0.05 % ID/g
same,uptake in kidney,[1]; 2 h p.i.,29 ± 12 % ID/g
same,uptake in large int.,[1]; 2 h p.i.,0.2 ± 0.1 % ID/g
same,uptake in liver,[1]; 2 h p.i.,11.7 ± 7.0 % ID/g
same,uptake in muscle,[1]; 2 h p.i.,0.2 ± 0.1 % ID/g
same,uptake in pancreas,[1]; 2 h p.i.,0.15 ± 0.03 % ID/g
same,uptake in spleen,[1]; 2 h p.i.,4.4 ± 1.2 % ID/g
same,uptake in bladder,[1]; 5 h p.i.,5.2 ± 8.9 % ID/g
same,uptake in blood,[1]; 5 h p.i.,0.03 ± 0.00 % ID/g
same,uptake in heart,[1]; 5 h p.i.,0.03 ± 0.01 % ID/g
same,uptake in kidney,[1]; 5 h p.i.,14 ± 9 % ID/g
same,uptake in large int.,[1]; 5 h p.i.,0.6 ± 0.6 % ID/g
same,uptake in pancreas,[1]; 5 h p.i.,0.05 ± 0.03 % ID/g
same,uptake in stomach,[1]; 5 h p.i.,0.04 ± 0.02 % ID/g
same,uptake pattern on PET,[2],"easily observed within PSMA^+ PIP tumor, none within flu tumor, high renal uptake and a modest degree of liver uptake"
